According to ChEMBL document CHEMBL1201862, “PubChem BioAssay data set” (2004):
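Where inhibition never reached the appropriate level, the endpoint shown equals the highest concentration tested. Otherwise, values were interpolated linearly from a five-concentration, 48-hour dose response in 96-well plates. GI50 marks 50% less growth.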 Calls of active or inactive are those of the source. Rule as the data show it: active = GI50 up to about 1.1 µM and inactive = higher.

Key:
Experiment in all cases: DTP human tumour cell line panel, 48 h
SK-MEL-28 = test system: SK-MEL-28
CAKI-1 = test system: CAKI-1
IGROV-1 = test system: IGROV-1
OVCAR-5 = test system: OVCAR-5
SF-295 = test system: SF-295
HCC 2998 = test system: HCC 2998
HL-60 = test system: HL-60
HCT-15 = test system: HCT-15
NCI-H23 = test system: NCI-H23
A549 = test system: A549
LOX IMVI = test system: LOX IMVI
SNB-19 = test system: SNB-19
786-0 = test system: 786-0
SW-620 = test system: SW-620
UO-31 = test system: UO-31
KM12 = test system: KM12
SF-268 = test system: SF-268
OVCAR-4 = test system: OVCAR-4
MDA-MB-231 = test system: MDA-MB-231

Row | Structure (SMILES) | GI50 (SK-MEL-28) | GI50 (CAKI-1) | GI50 (IGROV-1) | GI50 (OVCAR-5) | GI50 (SF-295) | GI50 (HCC 2998) | GI50 (HL-60) | GI50 (HCT-15) [µM] | GI50 (NCI-H23) | GI50 (A549) | GI50 (LOX IMVI) | GI50 (SNB-19) | GI50 (786-0) | GI50 (SW-620) | GI50 (UO-31) | GI50 (KM12) | GI50 (SF-268) | GI50 (OVCAR-4) | GI50 (MDA-MB-231)
1 | CCN(CC)c1ccc(/C=C/c2ccnc3ccccc23)cc1 | > 100 µM (inactive) | > 100 µM (inactive) | > 100 µM (inactive) | > 100 µM (inactive) | > 100 µM (inactive) | > 100 µM (inactive) | > 100 µM (inactive) | > 100 | > 100 µM (inactive) | > 100 µM (inactive) | > 100 µM (inactive) | > 100 µM (inactive) | > 100 µM (inactive) | > 100 µM (inactive) | > 100 µM (inactive) | > 100 µM (inactive) | > 100 µM (inactive) | > 100 µM (inactive) | > 100 µM (inactive)
2 | CCOC(=O)/C=C(\C)Sc1cc(O)c2ccccc2c1O | 13.2 µM (inactive) | 23.5 µM (inactive) | 12 µM (inactive) | 24.4 µM (inactive) | 24.6 µM (inactive) | 8.97 µM (inactive) | 3.77 µM (inactive) | 17.4 | 30.4 µM (inactive) | 28.1 µM (inactive) | 5.37 µM (inactive) | 14.4 µM (inactive) | 19.8 µM (inactive) | 5.08 µM (inactive) | 4.51 µM (inactive) | 28.6 µM (inactive) | 11 µM (inactive) | 16.1 µM (inactive) | 16.4 µM (inactive)
3 | Cc1ccc([N+](=O)[O-])cc1S(=O)(=O)Nc1ccc(C2=NOC(c3ccccc3)C2)cc1 (stereo not given) | 18.7 µM (inactive) | 7.1 µM (inactive) | 5.48 µM (inactive) | 25.4 µM (inactive) | 3.17 µM (inactive) | 9.04 µM (inactive) | 5.12 µM (inactive) | 4.11 | 14.5 µM (inactive) | 6.89 µM (inactive) | 10.9 µM (inactive) | 10.1 µM (inactive) | 13.8 µM (inactive) | 6 µM (inactive) | 18.2 µM (inactive) | 3.57 µM (inactive) | 12.4 µM (inactive) | 1.32 µM (inactive) | 8.99 µM (inactive)
4 | CC1(c2nc3cc(Cl)c(Cl)cc3[nH]2)CCC(CO)C(C)(C)O1 (stereo not given) | 24.8 µM (inactive) | 29.3 µM (inactive) | 20.9 µM (inactive) | 82.2 µM (inactive) | 31 µM (inactive) | 32.2 µM (inactive) | 15 µM (inactive) | 35.6 | 25.6 µM (inactive) | 33.6 µM (inactive) | 27.7 µM (inactive) | 54.1 µM (inactive) | 42 µM (inactive) | 30.9 µM (inactive) | 15.1 µM (inactive) | 15.1 µM (inactive) | 34.8 µM (inactive) | 25.1 µM (inactive) | 22.8 µM (inactive)
5 | CSc1ccc(-c2cc(-c3nc4ccccc4[nH]3)no2)cc1 | 27.6 µM (inactive) | 23.6 µM (inactive) | 23.2 µM (inactive) | > 100 µM (inactive) | 28.7 µM (inactive) | 16.2 µM (inactive) | 21.6 µM (inactive) | 9.62 | 19.1 µM (inactive) | 23.6 µM (inactive) | 24.3 µM (inactive) | 40.3 µM (inactive) | 55.1 µM (inactive) | 37 µM (inactive) | 13.1 µM (inactive) | 9.91 µM (inactive) | 32 µM (inactive) | 0.0562 µM (active) | 40.6 µM (inactive)
6 | Cn1/c(=N\N=C2\C=C3CCCCC3(C)CC2)sc2ccccc21 (stereo not given) | > 100 µM (inactive) | > 100 µM (inactive) | > 100 µM (inactive) | > 100 µM (inactive) | > 100 µM (inactive) | > 100 µM (inactive) | > 100 µM (inactive) | > 100 | > 100 µM (inactive) | > 100 µM (inactive) | > 100 µM (inactive) | > 100 µM (inactive) | > 100 µM (inactive) | > 100 µM (inactive) | > 100 µM (inactive) | > 100 µM (inactive) | > 100 µM (inactive) | > 100 µM (inactive) | 71.8 µM (inactive)
7 | N#Cc1ccc(Oc2nc3ccc(C(F)(F)F)cc3nc2-c2ccccc2)cc1 | 16.6 µM (inactive) | 22.6 µM (inactive) | 18.8 µM (inactive) | 13.4 µM (inactive) | 24.8 µM (inactive) | 17 µM (inactive) | 20.1 µM (inactive) | 14.9 | 16.5 µM (inactive) | 16.7 µM (inactive) | 27.2 µM (inactive) | 21.8 µM (inactive) | 17.1 µM (inactive) | 21.3 µM (inactive) | 17.2 µM (inactive) | 20.5 µM (inactive) | 24.9 µM (inactive) | 16.2 µM (inactive) | 14.5 µM (inactive)
8 | CC(=O)O[C@H]1CC[C@@]2(C)C(=CC[C@@H]3[C@@H]2CC[C@]2(C)c4c(C)n[nH]c4C[C@@H]32)C1 | 20.7 µM (inactive) | 16.8 µM (inactive) | 20.8 µM (inactive) | 14.9 µM (inactive) | 20.4 µM (inactive) | 18.5 µM (inactive) | 10.1 µM (inactive) | 15 | 14.1 µM (inactive) | 14.2 µM (inactive) | 31.5 µM (inactive) | 19.5 µM (inactive) | 17.4 µM (inactive) | 16.9 µM (inactive) | 17.7 µM (inactive) | 15.3 µM (inactive) | 23.4 µM (inactive) | 15.7 µM (inactive) | 21.1 µM (inactive)
9 | CNC(=O)/C=C/C1=CN2C(=O)c3ccc(C)c(O)c3NC(OC)C2C1 (stereo not given) | 0.0145 µM (active) | < 0.0166 µM (active) | 0.016 µM (active) | 0.0244 µM (active) | 0.0168 µM (active) | < 0.0126 µM (active) | 0.0298 µM (active) | < 0.0131 | < 0.0134 µM (active) | < 0.0149 µM (active) | < 0.0142 µM (active) | < 0.0152 µM (active) | < 0.01 µM (active) | < 0.0164 µM (active) | < 0.0143 µM (active) | < 0.0139 µM (active) | < 0.0154 µM (active) | < 0.0132 µM (active) | < 0.01 µM (active)
10 | CC(C)Oc1c(-c2c(OC(C)C)c(=O)c2=O)c(=O)c1=O | > 68.2 µM (inactive) | > 100 µM (inactive) | > 31.7 µM (inactive) | > 100 µM (inactive) | > 65 µM (inactive) | > 55.3 µM (inactive) | 24.7 µM (inactive) | > 60.5 | > 52.8 µM (inactive) | > 100 µM (inactive) | > 32.4 µM (inactive) | > 69 µM (inactive) | > 52.5 µM (inactive) | > 34.9 µM (inactive) | > 58.5 µM (inactive) | > 36.5 µM (inactive) | > 47.3 µM (inactive) | > 49.7 µM (inactive) | > 36.7 µM (inactive)
11 | CC(C)(C)OC(=O)NC(Cc1ccc(O)cn1)C(N)=O (stereo not given) | > 100 µM (inactive) | > 100 µM (inactive) | > 100 µM (inactive) | > 100 µM (inactive) | > 100 µM (inactive) | > 100 µM (inactive) | > 100 µM (inactive) | > 100 | > 100 µM (inactive) | > 100 µM (inactive) | > 100 µM (inactive) | > 100 µM (inactive) | > 100 µM (inactive) | > 100 µM (inactive) | > 100 µM (inactive) | > 100 µM (inactive) | > 100 µM (inactive) | > 100 µM (inactive) | > 100 µM (inactive)
12 | C[n+]1cn(-c2nc3ccccc3nc2[N-]S(=O)(=O)c2ccccc2)c2ccccc21 | > 100 µM (inactive) | > 100 µM (inactive) | > 100 µM (inactive) | > 100 µM (inactive) | > 100 µM (inactive) | > 100 µM (inactive) | > 100 µM (inactive) | > 100 | > 100 µM (inactive) | > 100 µM (inactive) | > 100 µM (inactive) | > 100 µM (inactive) | > 100 µM (inactive) | > 100 µM (inactive) | 80.7 µM (inactive) | > 100 µM (inactive) | > 100 µM (inactive) | > 100 µM (inactive) | > 100 µM (inactive)
13 | CN1CCC/C1=N\C#N | > 100 µM (inactive) | > 100 µM (inactive) | > 100 µM (inactive) | > 100 µM (inactive) | > 100 µM (inactive) | > 100 µM (inactive) | > 100 µM (inactive) | > 100 | > 100 µM (inactive) | > 100 µM (inactive) | > 100 µM (inactive) | > 100 µM (inactive) | > 100 µM (inactive) | > 100 µM (inactive) | > 100 µM (inactive) | > 100 µM (inactive) | > 100 µM (inactive) | > 100 µM (inactive) | > 100 µM (inactive)
14 | COc1cc([C@@H]2OC[C@@H]3C(c4cc(OC)c5c(c4)OCO5)OC[C@@H]32)cc(OC)c1OC (stereo not given in full) | > 100 µM (inactive) | > 100 µM (inactive) | > 100 µM (inactive) | > 100 µM (inactive) | > 100 µM (inactive) | > 100 µM (inactive) | > 10 µM (inactive) | 43.3 | > 100 µM (inactive) | > 100 µM (inactive) | > 100 µM (inactive) | > 100 µM (inactive) | > 100 µM (inactive) | > 100 µM (inactive) | > 100 µM (inactive) | > 100 µM (inactive) | > 100 µM (inactive) | 92.5 µM (inactive) | > 100 µM (inactive)
15 | ClCC[N+]12CC[N+](CCCl)(CC1)C2 | > 100 µM (inactive) | > 75.5 µM (inactive) | > 100 µM (inactive) | > 100 µM (inactive) | > 100 µM (inactive) | > 100 µM (inactive) | > 100 µM (inactive) | > 100 | > 100 µM (inactive) | > 100 µM (inactive) | > 100 µM (inactive) | > 100 µM (inactive) | > 100 µM (inactive) | > 100 µM (inactive) | > 100 µM (inactive) | > 100 µM (inactive) | > 100 µM (inactive) | > 100 µM (inactive) | > 100 µM (inactive)
